Experimental data published in patent publication US8148391B2 (Cephalon, Inc., priority 2006, dated 2012).
Read-outs that look alike come from different tables or passages of the source. Blank lines part the entries; values can stand above or below the compound they belong to.

Tests used:
[1] = molecular target: T1, baculovirus-expressed ALK (Homo sapiens, UniProt Q9UM73); assay: ALK Kinase Assay (ELISA-type, time-resolved fluorescence); type: biochemical
T1 construct: host or cells: baculovirus expression system
Procedure, shortened: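 Plates coated with phospholipase C-γ substrate (10 μg/mL in TBS); reaction started with 30 ng/ml ALK and run 15 min at 37° C. Phosphorylated substrate detected with Eu-N1-labeled PT66 antibody. IC50 from sigmoidal variable-slope fit of percent inhibition vs log concentration.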

[2] = molecular target: T2, c-Met (cytoplasmic domain) (Homo sapiens, UniProt P08581); assay: c-Met Kinase Assay (same methods as for ALK, with modifications); type: biochemical
T2 construct: 10 ng/mL c-Met (cytoplasmic domain, Invitrogen Corporation #PV3143); purchased Invitrogen Corporation PV3143
Procedure, shortened: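 Europium-labeled PT66 antibody (Eu-N1) detects substrate phosphorylation on wells coated with phospholipase C-γ at 10 μg/mL. The kinase, the cytoplasmic domain of c-Met at 10 ng/mL, starts the reaction, which proceeds 15 minutes at 37° C.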

[3] = 1 μM ATP (Km level), read-out: ALK Activity (ALK Kinase Inhibition, IC50)
[4] = 1 μM ATP (Km level), read-out: cMet Activity (c-Met Kinase Inhibition, IC50)
[5] = 1 μM ATP (Km level), 30 ng/ml ALK, 37° C., 15 minutes, read-out: ALK Activity (ALK kinase inhibition, IC50 class)
[6] = 1 μM ATP (Km level), 10 ng/mL c-Met, read-out: cMet Activity (c-Met kinase inhibition, IC50 class)
[7] = ALK kinase inhibition, 1 μM ATP (Km level), read-out: ALK Activity
[8] = c-Met kinase inhibition, 1 μM ATP (Km level), read-out: cMet Activity
[9] = ALK kinase inhibition, 1 μM ATP, read-out: ALK Activity
[10] = c-Met kinase inhibition, 1 μM ATP, read-out: cMet Activity

T2 sequence (P08581 956-1390 limits assumed): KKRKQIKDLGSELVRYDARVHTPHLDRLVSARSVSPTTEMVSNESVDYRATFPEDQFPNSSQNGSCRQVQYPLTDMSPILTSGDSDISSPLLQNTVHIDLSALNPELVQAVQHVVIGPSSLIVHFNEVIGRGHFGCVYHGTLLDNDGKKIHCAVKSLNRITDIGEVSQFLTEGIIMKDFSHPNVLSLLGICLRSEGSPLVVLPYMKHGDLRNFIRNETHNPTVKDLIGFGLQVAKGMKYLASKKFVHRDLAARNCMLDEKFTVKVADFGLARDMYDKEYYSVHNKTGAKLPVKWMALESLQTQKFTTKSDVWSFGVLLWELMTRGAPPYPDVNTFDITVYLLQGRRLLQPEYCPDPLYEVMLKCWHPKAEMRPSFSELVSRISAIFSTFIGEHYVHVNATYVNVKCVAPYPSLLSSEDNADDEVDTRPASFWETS
T1 sequence (Q9UM73 19-1620): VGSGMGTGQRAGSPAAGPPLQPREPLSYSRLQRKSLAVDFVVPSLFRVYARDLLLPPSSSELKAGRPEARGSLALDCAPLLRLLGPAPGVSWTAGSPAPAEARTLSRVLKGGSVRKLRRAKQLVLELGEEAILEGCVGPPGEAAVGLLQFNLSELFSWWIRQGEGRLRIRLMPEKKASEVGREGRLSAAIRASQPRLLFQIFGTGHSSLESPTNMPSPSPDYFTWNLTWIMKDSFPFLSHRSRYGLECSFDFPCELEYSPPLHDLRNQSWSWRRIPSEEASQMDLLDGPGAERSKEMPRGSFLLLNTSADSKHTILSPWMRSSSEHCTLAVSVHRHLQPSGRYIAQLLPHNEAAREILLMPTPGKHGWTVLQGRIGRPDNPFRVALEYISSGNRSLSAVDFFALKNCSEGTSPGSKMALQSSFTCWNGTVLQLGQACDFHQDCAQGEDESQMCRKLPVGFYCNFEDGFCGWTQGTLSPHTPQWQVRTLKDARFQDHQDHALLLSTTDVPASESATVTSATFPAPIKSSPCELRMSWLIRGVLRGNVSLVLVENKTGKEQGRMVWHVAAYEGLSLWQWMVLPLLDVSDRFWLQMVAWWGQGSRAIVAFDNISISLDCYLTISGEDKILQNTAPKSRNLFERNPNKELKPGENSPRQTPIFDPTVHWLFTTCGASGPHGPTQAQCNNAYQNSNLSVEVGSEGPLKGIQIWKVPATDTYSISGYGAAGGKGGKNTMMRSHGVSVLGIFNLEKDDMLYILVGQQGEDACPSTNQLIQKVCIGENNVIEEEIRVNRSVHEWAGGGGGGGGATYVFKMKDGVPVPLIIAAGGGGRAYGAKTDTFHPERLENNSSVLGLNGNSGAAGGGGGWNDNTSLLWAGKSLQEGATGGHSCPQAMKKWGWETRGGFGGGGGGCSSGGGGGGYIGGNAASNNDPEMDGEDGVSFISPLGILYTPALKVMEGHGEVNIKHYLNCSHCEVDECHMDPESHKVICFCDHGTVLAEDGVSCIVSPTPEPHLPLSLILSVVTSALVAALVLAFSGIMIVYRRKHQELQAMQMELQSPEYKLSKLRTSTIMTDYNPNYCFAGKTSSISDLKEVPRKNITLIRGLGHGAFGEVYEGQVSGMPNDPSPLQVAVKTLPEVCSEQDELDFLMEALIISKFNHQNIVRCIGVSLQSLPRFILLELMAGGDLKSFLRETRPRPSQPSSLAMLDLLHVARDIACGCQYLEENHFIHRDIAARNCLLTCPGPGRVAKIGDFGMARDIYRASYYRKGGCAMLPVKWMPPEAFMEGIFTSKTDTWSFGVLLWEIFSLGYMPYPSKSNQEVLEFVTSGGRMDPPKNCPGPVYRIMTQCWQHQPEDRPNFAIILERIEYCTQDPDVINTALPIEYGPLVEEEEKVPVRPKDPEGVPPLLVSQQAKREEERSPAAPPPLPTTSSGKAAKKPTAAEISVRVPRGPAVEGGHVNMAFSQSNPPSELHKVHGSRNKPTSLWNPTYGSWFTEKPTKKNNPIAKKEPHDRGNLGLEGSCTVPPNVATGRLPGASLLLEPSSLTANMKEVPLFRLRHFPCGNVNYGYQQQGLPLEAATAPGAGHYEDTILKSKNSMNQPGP

Compound: COc1cc2c(cc1Nc1ncc(Cl)c(Nc3ccc(N4CCN(C)CC4)c(OC)c3)n1)CCN(CC(=O)N(C)C)CC2 [Example 804, 2-(7-{5-Chloro-4-[3-methoxy-4-(4-methyl-piperazin-1-yl)-phenylamino]-pyrimidin-2-ylamino}-8-methoxy-1,2,4,5-tetrahydro-benzo[d]azepin-3-yl)-N,N-dimethyl-acetamide]
IC50 [1, 3]: < 100 nM
IC50 [2, 4]: > 10000 nM

Compound: C#CCNC(=O)c1cccc(F)c1Nc1nc(Nc2ccc3c(c2)NC(=O)C(NC(=O)N2CCCC2)CC3(C)C)ncc1Cl (stereo not drawn) [Example 1296, Pyrrolidine-1-carboxylic acid {8-[5-chloro-4-(2-fluoro-6-prop-2-ynylcarbamoyl-phenylamino)-pyrimidin-2-ylamino]-5,5-dimethyl-2-oxo-2,3,4,5-tetrahydro-1H-1-benzazepin-3-yl}-amide]
IC50 [1, 5]: 100 to 1000 nM
IC50 [2, 6]: < 100 nM

Compound: CN1C(=O)CCCc2cc(Nc3ncc(Cl)c(Nc4ccc5[nH]c(C(F)(F)F)nc5c4)n3)ccc21 [Example 1016, 7-[5-Chloro-4-(2-trifluoromethyl-1H-benzoimidazol-5-ylamino)-pyrimidin-2-ylamino]-1-methyl-1,3,4,5-tetrahydro-benzo[b]azepin-2-one]
IC50 [1, 5]: 100 to 1000 nM
IC50 [2, 6]: 1000 to 10000 nM

Compound: CCN1C(=O)CCCc2c1ccc(Nc1ncc(Cl)c(Nc3ccccc3-c3nccn3C)n1)c2OC [Example 983, 7-{5-Chloro-4-[2-(1-methyl-1H-imidazol-2-yl)-phenylamino]-pyrimidin-2-ylamino}-1-ethyl-6-methoxy-1,3,4,5-tetrahydro-benzo[b]azepin-2-one]
IC50 [1, 3]: < 100 nM
IC50 [2, 4]: > 10000 nM

Compound: CCN1C(=O)CCC(C)(C)c2ccc(Nc3ncc(Cl)c(Nc4ccccc4S(C)(=O)=O)n3)cc21 [Example 1248, 8-[5-Chloro-4-(2-methanesulfonyl-phenylamino)-pyrimidin-2-ylamino]-1-ethyl-5,5-dimethyl-1,3,4,5-tetrahydro-1-benzazepin-2-one]
IC50 [1, 5]: < 100 nM
IC50 [2, 6]: < 100 nM

Compound: CS(=O)(=O)N[C@@H]1CCCC[C@H]1Nc1nc(Nc2ccc3c(c2)CNCCS3(=O)=O)ncc1Cl [Example 520, N-{(1R,2R)-2-[5-Chloro-2-(5,5-dioxo-6,7,8,9-tetrahydro-5H-5lambda*6*-thia-8-aza-benzoylcyclohepten-2-ylamino)-pyrimidin-4-ylamino]-cyclohexyl}-methanesulfonamide]
IC50 [1, 3]: 100 to 1000 nM
IC50 [2, 4]: 1000 to 10000 nM

Compound: CNC(=O)c1ccccc1Nc1nc(Nc2ccc3c(c2)CCN(C[C@H](OC)C(F)(F)F)CC3)ncc1Cl [Example 335, 2-{5-Chloro-2-[3-((S)-3,3,3-trifluoro-2-methoxy-propyl)-2,3,4,5-tetrahydro-1H-benzo[d]azepin-7-ylamino]-pyrimidin-4-ylamino}-N-methyl-benzamide]
IC50 [1, 7]: < 100 nM
IC50 [2, 8]: < 100 nM

Compound: COc1ccc(Nc2nc(Nc3ccc4c(c3)C(C)(C)CCC(=O)N4)ncc2Cl)c(-n2cccn2)c1 [Example 611, 7-[5-Chloro-4-(4-methoxy-2-pyrazol-1-yl-phenylamino)-pyrimidin-2-ylamino]-5,5-dimethyl-1,3,4,5-tetrahydro-benzo[b]azepin-2-one]
IC50 [1, 3]: < 100 nM
IC50 [2, 4]: 1000 to 10000 nM

Compound: CCCCNC(=O)c1ccccc1Nc1nc(Nc2ccc3c(c2)CCCC(=O)N3)ncc1Cl [Example 1029, N-Butyl-2-[5-chloro-2-(2-oxo-2,3,4,5-tetrahydro-1H-benzo[b]azepin-7-ylamino)-pyrimidin-4-ylamino]-benzamide]
IC50 [1, 5]: 100 to 1000 nM
IC50 [2, 6]: 1000 to 10000 nM

Compound: CC1(C)CCC(=O)Nc2ccc(Nc3ncc(Cl)c(Nc4ccccc4-c4ncc[nH]4)n3)cc21 [Example 220, 7-{5-Chloro-4-[2-(1H-imidazol-2-yl)-phenylamino]-pyrimidin-2-ylamino}-5,5-dimethyl-1,3,4,5-tetrahydro-benzo[b]azepin-2-one]
IC50 [1, 7]: < 100 nM
IC50 [2, 8]: 1000 to 10000 nM

Compound: CC(=O)N1CCC(=O)NCc2cc(Nc3ncc(Cl)c(Nc4ccccc4CCC#N)n3)ccc21 [Example 1233, 3-{2-[2-(1-Acetyl-4-oxo-1,2,3,4,5,6-hexahydro-benzo[b][1,5]diazocin-8-ylamino)-5-chloro-pyrimidin-4-ylamino]-phenyl}-propionitrile]
IC50 [1, 5]: 100 to 1000 nM
IC50 [2, 6]: 100 to 1000 nM

Compound: CNC(=O)c1ccccc1Nc1nc(Nc2ccc3c(c2)C(C)(C)CCC(=O)N3C)ncc1Cl [Example 384, 2-[5-Chloro-2-(1,5,5-trimethyl-2-oxo-2,3,4,5-tetrahydro-1H-benzo[b]azepin-7-ylamino)-pyrimidin-4-ylamino]-N-methyl-benzamide]
IC50 [1, 7]: < 100 nM
IC50 [2, 8]: < 100 nM

Compound: (1S,2S,3R,4R)-3-[2-(3-Carbamoylmethyl-8-methoxy-2,3,4,5-tetrahydro-1H-benzo[d]azepin-7-ylamino)-5-chloro-pyrimidin-4-ylamino]-bicyclo[2.2.1]hept-5-ene-2-carboxylic acid amide [Example 813]
IC50 [1, 3]: < 100 nM
IC50 [2, 4]: > 10000 nM

Compound: CCN1CCc2cc(Nc3ncc(Cl)c(Nc4ccccc4C(=O)NC)n3)c(OC)cc2CC1=O [Example 253, 2-[5-Chloro-2-(3-ethyl-8-methoxy-2-oxo-2,3,4,5-tetrahydro-1H-benzo[d]azepin-7-ylamino)-pyrimidin-4-ylamino]-N-methyl-benzamide]
IC50 [1, 7]: < 100 nM
IC50 [2, 8]: 1000 to 10000 nM

Compound: COc1ccccc1Nc1nc(Nc2ccc3c(c2)CCC(NCC(F)(F)F)CC3)ncc1Cl (stereo not drawn) [Example 658, 5-Chloro-N*4*-(2-methoxy-phenyl)-N*2*-[7-(2,2,2-trifluoro-ethylamino)-6,7,8,9-tetrahydro-5H-benzocyclohepten-2-yl]-pyrimidine-2,4-diamine]
IC50 [1, 3]: 100 to 1000 nM
IC50 [2, 4]: > 10000 nM

Compound: CN1C(=O)CCCc2ccc(Nc3ncc(Cl)c(N[C@@H]4CCCC[C@H]4NS(C)(=O)=O)n3)cc21 [Example 109, N-{(1R,2R)-2-[5-Chloro-2-(1-methyl-2-oxo-2,3,4,5-tetrahydro-1H-benzo[b]azepin-8-ylamino)-pyrimidin-4-ylamino]-cyclohexyl}-methanesulfonamide]
IC50 [1, 7]: < 100 nM
IC50 [2, 8]: 1000 to 10000 nM

Results, then the compound that gave them:

IC50 [1, 5]: < 100 nM
IC50 [2, 6]: 1000 to 10000 nM
Compound: COCCNC(=O)c1ccccc1Nc1nc(Nc2ccc3c(c2)CCN(CCOC)CC3)ncc1Cl [Example 1398, {5-Chloro-2-[3-(2-methoxy-ethyl)-2,3,4,5-tetrahydro-1H-benzo[d]azepin-7-ylamino]-pyrimidin-4-ylamino}-N-(2-methoxy-ethyl)-benzamide]

IC50 [1, 9]: 100 to 1000 nM
IC50 [2, 10]: 100 to 1000 nM
Compound: CNC(=O)c1sccc1Nc1nc(Nc2ccc3c(c2)OCCCN3C(=O)OC2CCCN(C)C2)ncc1Cl (stereo not drawn) [Example 1440, 3-[5-Chloro-4-(2-methylcarbamoyl-thiophen-3-ylamino)-pyrimidin-2-ylamino]-7,8-dihydro-6H-5-oxa-9-aza-benzocycloheptene-9-carboxylic acid 1-methyl-piperidin-3-yl ester]

IC50 [1, 5]: < 100 nM
IC50 [2, 6]: < 100 nM
Compound: CCNC(=O)c1cccc(F)c1Nc1nc(Nc2ccc3c(c2)CCN(CC(=O)N(C)C)CC3)ncc1Cl [Example 1367, 2-[5-Chloro-2-(3-dimethylcarbamoylmethyl-2,3,4,5-tetrahydro-1H-benzo[d]azepin-7-ylamino)-pyrimidin-4-ylamino]-N-ethyl-3-fluoro-benzamide]

IC50 [1, 5]: < 100 nM
IC50 [2, 6]: 100 to 1000 nM
Compound: CNC(=O)c1cc(N(C)C)ccc1Nc1nc(Nc2ccc3c(c2)CCN(CCOC)CC3)ncc1Cl [Example 1413, 2-{5-Chloro-2-[3-(2-methoxy-ethyl)-2,3,4,5-tetrahydro-1H-benzo[d]azepin-7-ylamino]-pyrimidin-4-ylamino}-5-dimethylamino-N-methyl-benzamide]

IC50 [1, 5]: < 100 nM
IC50 [2, 6]: 100 to 1000 nM
Compound: CNC(=O)c1cc(-c2ccc(C#N)cc2)cc(F)c1Nc1nc(Nc2ccc3c(c2)NC(=O)CCC3)ncc1Cl [Example 1420, 4-[5-Chloro-2-(2-oxo-2,3,4,5-tetrahydro-1H-benzo[b]azepin-8-ylamino)-pyrimidin-4-ylamino]-4′-cyano-5-fluoro-biphenyl-3-carboxylic acid methyl amide]

IC50 [1, 9]: < 100 nM
IC50 [2, 10]: < 100 nM
Compound: CC1(C)CCC(=O)Nc2cc(Nc3ncc(Cl)c(Nc4ccccc4S(=O)(=O)N4CCC(O)C4)n3)ccc21 (stereo not drawn) [Example 1621, 8-{5-Chloro-4-[2-(3-hydroxy-pyrrolidine-1-sulfonyl)-phenylamino]-pyrimidin-2-ylamino}-5,5-dimethyl-1,3,4,5-tetrahydro-benzo[b]azepin-2-one]

IC50 [1, 7]: < 100 nM
IC50 [2, 8]: < 100 nM
Compound: CCN1C(=O)OCCc2ccc(Nc3ncc(Cl)c(Nc4c(F)cccc4C(=O)NC)n3)cc21 [Example 1882, 2-[5-Chloro-2-(5-ethyl-6-oxo-5,6,8,9-tetrahydro-7-oxa-5-aza-benzocyclohepten-3-ylamino)-pyrimidin-4-ylamino]-3-fluoro-N-methyl-benzamide]

IC50 [1, 9]: < 100 nM
IC50 [2, 10]: > 10000 nM
Compound: COCCOC(=O)c1ccccc1Nc1nc(Nc2cc3c(cc2OC)CCN(CCO)CC3)ncc1Cl [Example 1549, 2-{5-Chloro-2-[3-(2-hydroxy-ethyl)-8-methoxy-2,3,4,5-tetrahydro-1H-3-benzazepin-7-ylamino]-pyrimidin-4-ylamino}-benzoic acid 2-methoxy-ethyl ester]
